Data taken from paper PMC5859730, “Dual targeting of the cancer antioxidant network with 1,4-naphthoquinone fused Gold(I) N-heterocyclic carbene complexes” (Chemical Science, 2017).

Key:
A549 cells [1] = test: Detection of intracellular ROS by flow cytometry (CM-H2DCFDA); format: cell-based, human; details: A549, 2.5 μM, 6 h incubation, CM-H2DCFDA
PC-3 prostate = test: Cell proliferation (MTT assay) in PC-3 prostate cells; format: cell-based, human; details: p53 null; Table 3
Procedure: (§1) Further anti-proliferation studies were carried out with complex 1 and its naphthoquinone component 4[H][Cl] using the following cell lines: A2780 ovarian (a wt-p53 cell line sensitive to platinum treatment), 2780CP ovarian (isogenic to A2780 but expressing multi-drug resistance (MDR)), and PC-3 prostate (p53 null) (Table 3).
(§2) Biological preparations and assays
(§3) Experimental compound preparation. Stock solutions of complexes 1–3, 4[H][Cl], auranofin (Tocris Bioscience 4600), and doxorubicin (Tocris Bioscience 2252) were dissolved in DMSO (2.5–10 mM, depending on the compound and its solubility), aliquoted, and stored at -80 °C prior to use.
(§4) Biological Materials and Cell Lines. Cell lines were obtained from the ATCC (A549 and PC-3) and Prof.
(§5) Zahid Siddik at M.D. Anderson Cancer Center (A2780 and A2780CP). Cell culture plastic ware (i.e. T-75 flasks, treated 6-well plates, treated 96-well plates, and cell scrapers) were obtained from Fisher Scientific. […]
(§6) were made. […] The medium was then removed, the resulting formazan was dissolved in […] DMSO and the respective absorbances were measured at 560–650 nm using a microplate reader (Molecular Devices, Sunnyvale, CA). Absorbance values were corrected for background and then normalized to wells containing untreated cells to allow for plate-to-plate comparisons. […]

[2] = tested on: A549 xenografts in zebrafish embryos; test: Zebrafish A549 tumor xenograft efficacy; format: in vivo; details: 0.5 μM, 48 to 72 hpf
Procedure: The anticancer activity of the complex 1 was tested using a qualitative high throughput zebrafish tumor xenograft model (IACUC # I13009).[74] First, zebrafish embryos were divided into 7 groups at an average of 65 embryos per group. Each group was treated with vehicle (DMSO) or complex 1 at variable concentrations to identify the maximum tolerable dose (MTD) (Fig. S29 ^†). […] Therefore, efficacy studies, using zebrafish bearing human tumor xenografts were carried out with complex 1 being administered at the 0.5 μM concentration level.[75]–[77] Briefly, live human lung cancer cells (A549) were labeled with CM-DiI (red) and only live cells were transplanted via injection into the perivitelline space of 30 zebrafish embryos 24 hours post fertilization (hpf).[74],[78],[79] Tumor inoculated zebrafish embryos were allowed to grow for one day till 48 hpf. This allows for establishment of the cancer cells in the host zebrafish embryos. At 48 hpf, the xenograft bearing zebrafish embryos were split into 2 groups (15 embryos per group) and treated with vehicle (DMSO) or complex 1 at 0.5 μM for one additional day (72 hpf), and cancer cell death was observed using acridine orange staining (green). Live zebrafish-A549 tumor xenografts treated with DMSO display features consistent with the presence of tumor cells (red, white arrows in Fig. 10A). […]

2780CP ovarian = test: Cell proliferation (MTT assay) in 2780CP ovarian cells; format: cell-based, human; details: isogenic to A2780, multi-drug resistance; Table 3
Procedure: as §1, §2, §3, §4, §5, §6

A2780 ovarian = test: Cell proliferation (MTT assay) in A2780 ovarian cells; format: cell-based, human; details: wt-p53, platinum sensitive; Table 3
Procedure: as §1, §2, §3, §4, §5, §6

A549 cancer cells = test: Confocal microscopy of ROS localisation; format: cell-based, human; details: A549, 1.25 μM, 4 h
Procedure: To further elucidate the subcellular loci of ROS accentuation, confocal microscopy was employed to fluorescently image A549 cancer cells treated with vehicle (DMSO) and 1.25 μM complex 1 (Fig. 7d). All cells were selectively stained for visualization of ROS accentuation (green, CM-H2DCFDA), mitochondria (red, Mitotracker Red), and nuclei (blue, Hoechst).
Serum Protein Binding Studies.
aliquots were stored at -80°C.
in an Edvotek microcentrifuge. […] Samples
Detection of ROS by Flow Cytometry.
cells were treated with vehicle only.
g) at 5 °C. […] The pellet was
Control samples of unstained cells,
overnight. […] Post incubation, the media was
After incubation, the dye-
Cells were then imaged fluorescently
Lipoate Inhibition Assays.
well culture plates. […] The next day, appropriate
were added to each well. […] Afterwards, the liquid was then

A549 cells [3] = test: Apoptosis by annexin-V/PI flow cytometry; format: cell-based, human; details: A549, 1.25–20 μM, 24 h
[4] = tested on: thioredoxin reductase (TrxR); details: A549, 0.1–0.6 μM, 6 h exposure, lipoate reduction over 180 min
Procedure: Briefly, plateau phase A549 cells were exposed to variable doses of complexes 1, 3, 4[H][Cl], a 2 : 1 molar ratio of 4[H][Cl] and 5 (cocktail), auranofin, and doxorubicin for 6 h. Post treatment, the live cells were monitored colorimetrically over 180 min for their ability to reduce lipoate (Fig. 8a).

A549 lung cancer cells = test: ICP-MS detection of intracellular Au (cellular uptake)
[5] = tested on: DNA duplex (5'CCGCAGCCA3'/5'TGGCTGCGG3'); test: Thermal denaturation of a DNA duplex; format: binding; details: 1 molar equivalent, 5 μM complex and duplex

Cc1cc(C)c(-n2c3c(n(-c4c(C)cc(C)cc4C)[c]2=[Au-]=[c]2n(-c4c(C)cc(C)cc4C)c4c(n2-c2c(C)cc(C)cc2C)C(=O)c2ccccc2C4=O)C(=O)c2ccccc2C3=O)c(C)c1.[Cl][Ag-][Cl] [Complex 1, [bis(1,3-dimesityl-4,5-naphthoquino-imidazol-2-ylidene)-gold(I)] [silver(I)dichloride]]
Increase in intracellular ROS (fluorescence cell population shift) (A549 cells [1]): 27 fold
IC50 (PC-3 prostate): 96 ± 17 nM
Tumor cell death in xenografts (acridine orange staining) [2]: evidence of apoptosis for the majority of tumor cells
IC50 (2780CP ovarian): 54 ± 6 nM
IC50 (A2780 ovarian): 26 ± 7 nM
Subcellular locus of ROS accentuation (A549 cancer cells): ROS accentuation is arising from mitochondria
Mechanism of cell death (A549 cells [3]): induces controlled cell death via an apoptotic mechanism
Inhibition of TrxR at low concentrations [4]: inhibition of TrxR was apparent
Intracellular Au levels (uptake), in words (A549 lung cancer cells): identical
Thermal stabilization of DNA [5]: no thermal stabilization
